Source: ChEMBL document CHEMBL1133412, “Rational design, synthesis and structure-activity relationships of antitumor (E)-2-benzylidene-1-tetralones and (E)-2-benzylidene-1-indanones” (Bioorg Med Chem Lett, 2000)
Activity calls are given as the source filed them. The rule behind the calls is not given here.

How the values were obtained:
A549 [1] = assay: Cytotoxicity was evaluated against A549 tumor cell lines; Slightly active; assay type: functional, cell-based; details: Homo sapiens
B16 [2] = assay: Cytotoxicity was evaluated against B16 tumor cell lines; Slightly active; assay type: functional, cell-based; details: Mus musculus
CCRF-CEM [3] = assay: Cytotoxicity was evaluated against CEM tumor cell lines; Slightly active; assay type: functional, cell-based; details: Homo sapiens
NCI-H596 [4] = assay: Cytotoxicity was evaluated against H596 tumor cell lines; Slightly active; assay type: functional, cell-based; details: Homo sapiens
NCI-H292 [5] = assay: Cytotoxicity was evaluated against H292 tumor cell lines; Slightly active; assay type: functional, cell-based; details: Homo sapiens
HL-60 [6] = assay: Cytotoxicity was evaluated against HL-60 tumor cell lines; Slightly active; assay type: functional, cell-based; details: Homo sapiens
Jurkat = assay: In vitro test for antitumor activity against human Jurkat cell line using a formazan dye (MTT) conversion assay.; assay type: functional, cell-based
K562 [7] = assay: Cytotoxicity was evaluated against K562 tumor cell lines; Slightly active; assay type: functional, cell-based; details: Homo sapiens
L1210 [8] = assay: Cytotoxicity was evaluated against L1210 tumor cell lines; Slightly active; assay type: functional, cell-based; details: Mus musculus
MCF7 [9] = assay: Cytotoxicity was evaluated against MCF-7 tumor cell lines; Slightly active; assay type: functional, cell-based; details: Homo sapiens
MOLT-4 [10] = assay: Cytotoxicity was evaluated against Molt-4 tumor cell lines; Slightly active; assay type: functional, cell-based; details: Homo sapiens
NIH3T3 [11] = assay: Cytotoxicity was evaluated against NIH3T3 tumor cell lines; Slightly active; assay type: functional, cell-based; details: Mus musculus
WI-38 [12] = assay: Cytotoxicity was evaluated against WI38 tumor cell lines; Slightly active; assay type: functional, cell-based; details: Homo sapiens
WIL2 [13] = assay: Cytotoxicity was evaluated against WIL2 tumor cell lines; Slightly active; assay type: functional, cell-based; details: Homo sapiens
A549 [14] = assay: Cytotoxicity evaluated against A549 tumor cell lines; significant activity; assay type: functional, cell-based; details: Homo sapiens
B16 [15] = assay: Cytotoxicity was evaluated against B16 tumor cell lines; Significant activity; assay type: functional, cell-based; details: Mus musculus
CCRF-CEM [16] = assay: Cytotoxicity evaluated against CEM tumor cell lines; Significant activity; assay type: functional, cell-based; details: Homo sapiens
NCI-H596 [17] = assay: Cytotoxicity evaluated against H596 tumor cell lines; Significant activity; assay type: functional, cell-based; details: Homo sapiens
NCI-H292 [18] = assay: Cytotoxicity evaluated against H292 tumor cell lines; Significant activity; assay type: functional, cell-based; details: Homo sapiens
HL-60 [19] = assay: Cytotoxicity evaluated against HL-60 tumor cell lines; Significant activity; assay type: functional, cell-based; details: Homo sapiens
K562 [20] = assay: Cytotoxicity evaluated against K562 tumor cell lines; Significant activity; assay type: functional, cell-based; details: Homo sapiens
L1210 [21] = assay: Cytotoxicity evaluated against L1210 tumor cell lines; Significant activity; assay type: functional, cell-based; details: Mus musculus
MCF7 [22] = assay: Cytotoxicity evaluated against MCF-7 tumor cell lines; Significant activity; assay type: functional, cell-based; details: Homo sapiens
MOLT-4 [23] = assay: Cytotoxicity was evaluated against Molt-4 tumor cell lines; assay type: functional, cell-based; details: Homo sapiens
NIH3T3 [24] = assay: Cytotoxicity evaluated against NIH3T3 tumor cell lines; Significant activity; assay type: functional, cell-based; details: Mus musculus
Tumor cell line = assay: In vivo testing against tumor cells that were placed in the polyvinylidene fluoride (PVDF) hollow fibers of capsules and then implanted in to mice intraperitoneally or subcutaneously; assay type: functional, Mus musculus
WI-38 [25] = assay: Cytotoxicity evaluated against WI38 tumor cell lines; Significant activity; assay type: functional, cell-based; details: Homo sapiens
WIL2 [26] = assay: Cytotoxicity evaluated against WIL2 tumor cell lines; Significant activity; assay type: functional, cell-based; details: Homo sapiens
A549 [27] = assay: Cytotoxicity was evaluated against A549 tumor cell lines; Inactive; assay type: functional, cell-based; details: Homo sapiens
B16 [28] = assay: Cytotoxicity was evaluated against B16 tumor cell lines; Inactive; assay type: functional, cell-based; details: Mus musculus
CCRF-CEM [29] = assay: Cytotoxicity was evaluated against CEM tumor cell lines; Inactive; assay type: functional, cell-based; details: Homo sapiens
NCI-H596 [30] = assay: Cytotoxicity was evaluated against H596 tumor cell lines; Inactive; assay type: functional, cell-based; details: Homo sapiens
NCI-H292 [31] = assay: Cytotoxicity was evaluated against H292 tumor cell lines; Inactive; assay type: functional, cell-based; details: Homo sapiens
HL-60 [32] = assay: Cytotoxicity was evaluated against HL-60 tumor cell lines; Inactive; assay type: functional, cell-based; details: Homo sapiens
K562 [33] = assay: Cytotoxicity was evaluated against K562 tumor cell lines; Inactive; assay type: functional, cell-based; details: Homo sapiens
L1210 [34] = assay: Cytotoxicity was evaluated against L1210 tumor cell lines; Inactive; assay type: functional, cell-based; details: Mus musculus
MCF7 [35] = assay: Cytotoxicity was evaluated against MCF-7 tumor cell lines; Inactive; assay type: functional, cell-based; details: Homo sapiens
MOLT-4 [36] = assay: Cytotoxicity was evaluated against Molt-4 tumor cell lines; Inactive; assay type: functional, cell-based; details: Homo sapiens
NIH3T3 [37] = assay: Cytotoxicity was evaluated against NIH3T3 tumor cell lines; Inactive; assay type: functional, cell-based; details: Mus musculus
WI-38 [38] = assay: Cytotoxicity was evaluated against WI38 tumor cell lines; Inactive; assay type: functional, cell-based; details: Homo sapiens
WIL2 [39] = assay: Cytotoxicity was evaluated against WIL2 tumor cell lines; Inactive; assay type: functional, cell-based; details: Homo sapiens

Compound	Cytotoxicity (A549 [1])	Cytotoxicity (B16 [2])	Cytotoxicity (CCRF-CEM [3])	Cytotoxicity (NCI-H596 [4])	Cytotoxicity (NCI-H292 [5])	Cytotoxicity (HL-60 [6])	IC50 (Jurkat)	Cytotoxicity (A549 [27])	Cytotoxicity (B16 [28])	Cytotoxicity (CCRF-CEM [29])	Cytotoxicity (NCI-H596 [30])	Cytotoxicity (NCI-H292 [31])	Cytotoxicity (HL-60 [32])	Cytotoxicity (K562 [33])	Cytotoxicity (L1210 [34])	Cytotoxicity (MCF7 [35])	Cytotoxicity (MOLT-4 [36])	Cytotoxicity (NIH3T3 [37])	Cytotoxicity (WI-38 [38])	Cytotoxicity (WIL2 [39])	further results
COc1cc2c(c(N)c1O)C/C(=C\c1cc(C)c(O)c(C)c1)C2=O	Weak activity	Weak activity	Weak activity	Weak activity	Weak activity	Weak activity	30 µM														Cytotoxicity (K562 [7]): Weak activity; Cytotoxicity (L1210 [8]): Weak activity; Cytotoxicity (MCF7 [9]): Weak activity; Cytotoxicity (MOLT-4 [10]): Weak activity; Cytotoxicity (NIH3T3 [11]): Weak activity; Cytotoxicity (WI-38 [12]): Weak activity; Cytotoxicity (WIL2 [13]): Weak activity
COc1cc2c(cc1OC)C(=O)/C(=C/c1cc(C)cc(C)c1)C2							0.08 µM														Cytotoxicity (A549 [14]): Significant activity; Cytotoxicity (B16 [15]): Significant activity; Cytotoxicity (CCRF-CEM [16]): Significant activity; Cytotoxicity (NCI-H596 [17]): Significant activity; Cytotoxicity (NCI-H292 [18]): Significant activity; Cytotoxicity (HL-60 [19]): Significant activity; Cytotoxicity (K562 [20]): Significant activity; Cytotoxicity (L1210 [21]): Significant activity; Cytotoxicity (MCF7 [22]): Significant activity; Cytotoxicity (MOLT-4 [23]): Significant activity; Cytotoxicity (NIH3T3 [24]): Significant activity; IP+SC score (Tumor cell line): <20; Cytotoxicity (WI-38 [25]): Significant activity; Cytotoxicity (WIL2 [26]): Significant activity
COc1cc2c(cc1OC)C(=O)/C(=C/c1cc(C)c(OC(=O)OCC(C)C)c(C)c1)C2	Weak activity	Weak activity	Weak activity	Weak activity	Weak activity	Weak activity	21.5 µM														Cytotoxicity (K562 [7]): Weak activity; Cytotoxicity (L1210 [8]): Weak activity; Cytotoxicity (MCF7 [9]): Weak activity; Cytotoxicity (MOLT-4 [10]): Weak activity; Cytotoxicity (NIH3T3 [11]): Weak activity; Cytotoxicity (WI-38 [12]): Weak activity; Cytotoxicity (WIL2 [13]): Weak activity
COc1cc2c(cc1OC)C(=O)/C(=C/c1cccc([N+](=O)[O-])c1)C2	Weak activity	Weak activity	Weak activity	Weak activity	Weak activity	Weak activity	22 µM														Cytotoxicity (K562 [7]): Weak activity; Cytotoxicity (L1210 [8]): Weak activity; Cytotoxicity (MCF7 [9]): Weak activity; Cytotoxicity (MOLT-4 [10]): Weak activity; Cytotoxicity (NIH3T3 [11]): Weak activity; Cytotoxicity (WI-38 [12]): Weak activity; Cytotoxicity (WIL2 [13]): Weak activity
COc1cc2c(cc1OC)C(=O)/C(=C/c1cc(C)c([N+](=O)[O-])c(C)c1)C2	Weak activity	Weak activity	Weak activity	Weak activity	Weak activity	Weak activity	25 µM														Cytotoxicity (K562 [7]): Weak activity; Cytotoxicity (L1210 [8]): Weak activity; Cytotoxicity (MCF7 [9]): Weak activity; Cytotoxicity (MOLT-4 [10]): Weak activity; Cytotoxicity (NIH3T3 [11]): Weak activity; Cytotoxicity (WI-38 [12]): Weak activity; Cytotoxicity (WIL2 [13]): Weak activity
COc1ccc(/C=C2\CCc3cc(OC)c(OC)cc3C2=O)cc1OC							> 50 µM	inactive	inactive	inactive	inactive	inactive	inactive	inactive	inactive	inactive	inactive	inactive	inactive	inactive	
COc1cc2c(cc1OC)C(=O)/C(=C/c1c(OC)cccc1OC)CC2							> 50 µM	inactive	inactive	inactive	inactive	inactive	inactive	inactive	inactive	inactive	inactive	inactive	inactive	inactive	
COc1ccc(/C=C2\CCc3cc(OC)c(OC)cc3C2=O)cc1							> 50 µM	inactive	inactive	inactive	inactive	inactive	inactive	inactive	inactive	inactive	inactive	inactive	inactive	inactive	
COc1cc2c(cc1OC)C(=O)/C(=C/c1cc(C)ccc1C)C2	Weak activity	Weak activity	Weak activity	Weak activity	Weak activity	Weak activity	30.5 µM														Cytotoxicity (K562 [7]): Weak activity; Cytotoxicity (L1210 [8]): Weak activity; Cytotoxicity (MCF7 [9]): Weak activity; Cytotoxicity (MOLT-4 [10]): Weak activity; Cytotoxicity (NIH3T3 [11]): Weak activity; Cytotoxicity (WI-38 [12]): Weak activity; Cytotoxicity (WIL2 [13]): Weak activity
COc1cc2c(cc1OC)C(=O)/C(=C/c1cccc(OC)c1OC)CC2							> 50 µM	inactive	inactive	inactive	inactive	inactive	inactive	inactive	inactive	inactive	inactive	inactive	inactive	inactive	
COc1cc2c(c([N+](=O)[O-])c1OC)C(=O)/C(=C/c1cc(C)c(O)c(C)c1)C2							> 50 µM	inactive	inactive	inactive	inactive	inactive	inactive	inactive	inactive	inactive	inactive	inactive	inactive	inactive	
COc1cc2c(c([N+](=O)[O-])c1OC)C(=O)/C(=C/c1cc(C)c([N+](=O)[O-])c(C)c1)C2							> 50 µM	inactive	inactive	inactive	inactive	inactive	inactive	inactive	inactive	inactive	inactive	inactive	inactive	inactive	
COc1ccc2c(c1)C/C(=C\c1cc(C)c(O)c(C)c1)C2=O							> 50 µM	inactive	inactive	inactive	inactive	inactive	inactive	inactive	inactive	inactive	inactive	inactive	inactive	inactive	
COc1cc2c(cc1OC)C(=O)/C(=C/c1ccc(N)cc1)CC2	Weak activity	Weak activity	Weak activity	Weak activity	Weak activity	Weak activity	40 µM														Cytotoxicity (K562 [7]): Weak activity; Cytotoxicity (L1210 [8]): Weak activity; Cytotoxicity (MCF7 [9]): Weak activity; Cytotoxicity (MOLT-4 [10]): Weak activity; Cytotoxicity (NIH3T3 [11]): Weak activity; Cytotoxicity (WI-38 [12]): Weak activity; Cytotoxicity (WIL2 [13]): Weak activity
